# Results: patent US10308686B2, “Gamma-AApeptides with potent and broad-spectrum antimicrobial activity” (priority 2012, dated 2019)
# Experiments:
# [1] = tested on: B. anthracis; conditions: Table 3
# [2] = tested on: E. coli (JM109)
# [3] = tested on: multi-drug resistant S. epidermidis (RP62A); conditions: Table 3
# [4] = tested on: multi-drug resistant P. aeruginosa ATCC 27853; conditions: ATCC 27853
# [5] = tested on: human red blood cells (hRBC's); test: Hemolysis assay; format: cell-based
# Outline: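 Washed human RBCs (K2 EDTA) as 5% v/v suspension in PBS, mixed 1:1 with two-fold serial peptide dilutions (250–1.6 μg/ml, or 1 mg/ml–6.3 μg/ml for lipidated γ-AApeptides) in PBS; 1 h at 37 °C. Supernatant OD 360 nm, normalised to PBS (0%) and 0.2% Triton-X-100 (100%); H50 = concentration giving 50% hemolysis.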
# [6] = tested on: methicillin-resistant S. aureus (MRSA, USA100 lineage); conditions: Table 3
# [7] = tested on: vancomycin-resistant E. faecalis (ATCC 700802); conditions: Table 3
# [8] = tested on: methicillin-resistant S. aureus (ATCC 33592); conditions: Table 3
# [9] = tested on: K. pneumoniae (ATCC 13383)
# [10] = tested on: C. albicans (ATCC 10231); conditions: ATCC 10231
# [11] = tested on: B. subtilis (BR151)
# [12] = tested on: S. aureus ATCC 33592; format: cell-based; conditions: serial passage at half-MIC, 17 days
smiles,measurement,setting,value
CCCCCCCCCCCCCCCC(=O)N[C@@H](C)CN(CC(=O)N[C@@H](C)CN(CC(=O)N[C@@H](CC(C)C)CN(CC(=O)N[C@@H](CC(C)C)CN(CC(=O)N[C@@H](CC(C)C)CN(CC(N)=O)C(=O)CCCN)C(=O)CCCN)C(=O)CCCN)C(C)=O)C(C)=O [γAA2],"MIC, B. anthracis (lethal bioweapon)",[1],5 µg/mL
same,"MIC, E. coli",[2],2.5 µg/mL
same,"MIC, S. epidermidis (multi-drug resistant)",[3],4 µg/mL
same,"MIC, P. aeruginosa",[4],25 to 50 µg/mL
same,Hemolysis (H50),[5],>500 µg/mL
same,"MIC, MRSA USA100",[6],10 µg/mL
same,"MIC, E. faecalis (vancomycin-resistant)",[7],5 µg/mL
same,"MIC, S. aureus (methicillin-resistant)",[8],4 µg/mL
same,"MIC, K. pneumoniae (causing pneumonia)",[9],5 µg/mL
same,"MIC, Fungi C. albicans",[10],5 µg/mL
same,"MIC, B. subtilis",[11],2.5 µg/mL
same,"development of resistance (change in MIC over 17 passages), in words",[12],did not cause resistance
